SMILES strings stand for the structures. Like-named read-outs stand apart in the source and are kept apart here.

By inhibition is commonly meant the percentage by which the read-out fell short of the control. The chromatographic logP is a lipophilicity value derived from retention on a column. Low values mean a more hydrophilic compound, high ones a more lipophilic compound.

The test system of series [1] is Alternaria solani. Briefly: In vivo preventive test on Alternaria solani (tomato). Particulars: 500 ppm of active ingredient, evaluated 7 days after inoculation. The method in brief:
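Young tomato plants sprayed preventively with compound in DMF/alkylarylpolyglycolether emulsion diluted in water to the stated rate. Inoculation with aqueous Alternaria solani spore suspension one day after treatment.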

The subject of series [2] is Pyrenophora teres. Briefly: In vivo preventive test on Pyrenophora teres (barley). The settings on record: 500 ppm of active ingredient, evaluated 7-9 days after inoculation. The method in brief:
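Compound formulated in N,N-dimethylformamide with alkylaryl polyglycol ether emulsifier and diluted in water, then sprayed on young barley plants at the stated application rate. Plants inoculated one day later with aqueous Pyrenophora teres spore suspension, testing preventive protection.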

Series [3] relates to Venturia inaequalis. Briefly: In vivo preventive test on Venturia inaequalis (apple scab). Particulars: 100 ppm of active ingredient, evaluated 10 days after inoculation. As to the method: (§1) Solvent: 24.5 parts by weight of acetone • 24.5 parts by weight of N,N-dimethylacetamide Emulsifier: 1 part by weight of alkylaryl polyglycol ether To produce a suitable preparation of active compound, 1 part by weight of active compound is mixed with the stated amounts of solvent and emulsifier, and the concentrate is diluted with water to the desired concentration. To test for preventive activity, young plants are sprayed with the preparation of active compound at the stated rate of application.

The subject of series [4] is Uromyces appendiculatus. The series can be described thus: In vivo preventive test on Uromyces appendiculatus (beans). Particulars: 100 ppm of active ingredient, evaluated 10 days after inoculation. Here is the method: as §1
Series [5] has as its system Botrytis cinerea. Briefly: In vivo preventive test on Botrytis cinerea (beans). The settings on record: Table L, 500 ppm of active ingredient, lesion size 2 days after inoculation. Here is the method: Solvent: 24.5 parts by weight of acetone • 24.5 parts by weight of N,N-dimethylacetamide
Emulsifier: 1 part by weight of alkylaryl polyglycol ether
To produce a suitable preparation of active compound, 1 part by weight of active compound is mixed with the stated amounts of solvent and emulsifier, and the concentrate is diluted with water to the desired concentration.
To test for preventive activity, young plants are sprayed with the preparation of active compound. After the spray coating has dried on, 2 small pieces of agar covered with growth of Botrytis cinerea are placed on each leaf. The inoculated plants are placed in a darkened chamber at 20° C. and a relative atmospheric humidity of 100%.
2 days after the inoculation, the size of the lesions on the leaves is evaluated. 0% means an efficacy which corresponds to that of the untreated control, while an efficacy of 100% means that no disease is observed.

In series [6] the test system is Septoria tritici. Briefly: In vivo preventive test on Septoria tritici (wheat). Particulars: 500 ppm of active ingredient, evaluated 21 days after inoculation. As to the method: Solvent: 49 parts by weight of N,N-dimethylacetamide Emulsifier: 1 part by weight of alkylaryl polyglycol ether To produce a suitable preparation of active compound, 1 part by weight of active compound or active compound combination is mixed with the stated amounts of solvent and emulsifier, and the concentrate is diluted with water to the desired concentration. To test for preventive activity, young plants are sprayed with the preparation of active compound or active compound combination at the stated rate of application. After the spray coating has been dried, the plants are sprayed with a spore suspension of Septoria tritici.

Series [7] deals with Blumeria graminis fsp. hordei. The series can be described thus: In vivo preventive test on Blumeria graminis (barley). The settings on record: 500 ppm of active ingredient, evaluated 7 days after inoculation. Here is the method:
Solvent: 49 parts by weight of N,N-dimethylacetamide Emulsifier: 1 part by weight of alkylaryl polyglycol ether To produce a suitable preparation of active compound, 1 part by weight of active compound or active compound combination is mixed with the stated amounts of solvent and emulsifier, and the concentrate is diluted with water to the desired concentration. To test for preventive activity, young plants are sprayed with the preparation of active compound or active compound combination at the stated rate of application. After the spray coating has been dried, the plants are dusted with spores of Blumeria graminis fsp. hordei.

Series [8] concerns Fusarium nivale (var. majus). Briefly: In vivo preventive test on Fusarium nivale (wheat). The settings on record: 500 ppm of active ingredient, evaluated 5 days after inoculation. Here is the method:
Solvent: 49 parts by weight of N,N-dimethylacetamide Emulsifier: 1 part by weight of alkylaryl polyglycol ether To produce a suitable preparation of active compound, 1 part by weight of active compound or active compound combination is mixed with the stated amounts of solvent and emulsifier, and the concentrate is diluted with water to the desired concentration. To test for preventive activity, young plants are sprayed with the preparation of active compound or active compound combination at the stated rate of application. After the spray coating has been dried, the plants are slightly injured by using a sandblast and afterwards they are sprayed with a conidia suspension of Fusarium nivale (var. majus).

In series [9] the test system is Puccinia triticina. The series can be described thus: In vivo preventive test on Puccinia triticina (wheat). Particulars: Table K, 500 ppm of active ingredient, evaluated 8 days after inoculation.
In series [10] the test system is aflatoxines produced by Aspergillus parasiticus. Briefly: microbe, parasite or virus in culture. In kind it is cell-based.
The subject of series [11] is Aspergillus parasiticus. Briefly: microbe, parasite or virus in culture. In kind it is cell-based.
Series [12] can be described thus: log P by HPLC on reversed-phase column (EEC Directive 79/831 Annex V.A8). The class given is physicochemical. Here is the method: In table 1, the log P values were determined in accordance with EEC Directive 79/831 Annex V.A8 by HPLC (High Performance Liquid Chromatography) on a reversed-phase column (C18), using the method described below: Temperature: 40° C.; […]

The test system of series [13] is Sphaerotheca fuliginea. Briefly: In vivo preventive test on Sphaerotheca fuliginea (cucumber). Particulars: 500 ppm of active ingredient, evaluated 7 days after inoculation. The method in brief: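 Young cucumber plants sprayed with compound (in DMF with alkylarylpolyglycolether emulsifier, diluted in water) at the stated application rate. Inoculated one day later with aqueous Sphaerotheca fuliginea spore suspension. Plants then held in greenhouse at approximately 23° C and approximately 70% relative humidity.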

Series [14] relates to Leptosphaeria nodorum. Briefly: In vivo preventive test on Leptosphaeria nodorum (wheat). The settings on record: 500 ppm of active ingredient, evaluated 7-9 days after inoculation. Here is the method: Solvent: 49 parts by weight of N,N-dimethylacetamide Emulsifier: 1 part by weight of alkylaryl polyglycol ether To produce a suitable preparation of active compound, 1 part by weight of active compound is mixed with the stated amounts of solvent and emulsifier, and the concentrate is diluted with water to the desired concentration. To test for preventive activity, young plants are sprayed with a preparation of active compound at the stated rate of application. One day after this treatment, the plants are inoculated with an aqueous spore suspension of Leptosphaeria nodorum.

In the case of `Cn1nc(C(F)F)c(C(=O)NCC2CCCC(C(F)(F)F)C2)c1Cl` (mixture of isomers) [Example 378], the Efficacy in series [1] is recorded as 100%; in series [2] it was 100%; in series [3] it was 100%; in [4], 100%; in series [5], 96%.

On to `CCCC1CCCCC1NC(=O)c1c(C(F)F)nn(C)c1F` (single isomer, unassigned) [Example 343], for which the Efficacy turned out to be 95% in [1]; 100% in series [2]; 97% in [3]; 100% in series [6]; 94% in series [7]; 100% in series [8]. This compound also registered an Efficacy in series [9] of 70%. In series [10], the “% Inhibition of Aflatoxin at 50 μM” value came to 100%. Moreover, the “% Inhibition of fungal growth at 50 μM” value in series [11] (50 µM) turned out to be 87%. The logP in series [12] is 3.42 isomer A.

Regarding `Cn1nc(C(F)F)c(C(=O)NC2CCCC2CCC(C)(C)C)c1F` (centres unmarked) [Example 319, 3-(difluoromethyl)-N-[2-(3,3-dimethylbutyl)cyclopentyl]-5-fluoro-1-methyl-1H-pyrazole-4-carboxamide], the Efficacy in [13], in series [1], in [2], in [6], in series [7] and in series [8] was 100% throughout. The compound also registered an Efficacy in series [5] of 73%. In addition, in [9] (Puccinia triticina, 192 h, read-out: Efficacy), the pest or weed control at 500 ppm was determined as 80%. For the same compound, the inhibition at 50 µM worked out at 100% in [10] (Aspergillus parasiticus, 168 h, read-out: % Inhibition of Aflatoxin at 50 μM) and 89% in [11] (Aspergillus parasiticus, 168 h, read-out: % Inhibition of fungal growth at 50 μM). The chromatographic logP in series [12] (log P (isomer A)) is 4.22; in [12] (log P (isomer B)) it was 4.28; in [12] (logP), 4.22.

Consider `Cn1nc(C(F)F)c(C(=O)NC2CCCC2CCC(C)(C)C)c1Cl` (centres unmarked) [Example 320], for which the Efficacy turned out to be 100% in series [13]; 100% in [1]; 95% in series [2]; 100% in [3]; 99% in series [4]; 70% in series [9]. In series [10], the “% Inhibition of Aflatoxin at 50 μM” value is recorded as 99%. The “% Inhibition of fungal growth at 50 μM” value in [11] was 82%. The logP in series [12] stood at 4.49.

Regarding `CC(C)CC(C)C1CCCC1NC(=O)c1c(C(F)F)nn(C)c1Cl` (single isomer, unassigned) [Example 314], the Efficacy in series [13] is given as 90%; in series [1], 95%; in [2], 100%; in [3] it was 98%; in series [14] it was 80%; in series [4] it was 85%. In series [12], the logP turned out to be 4.47 isomer C.

On to `CC(CCc1c(Cl)cc(Cl)cc1Cl)N(C(=O)c1c(C(F)F)nn(C)c1F)C1CC1` (centres unmarked) [Example 213], for which the Efficacy in series [13] is on record as 99%; in series [1], 100%; in series [2], 100%; in [6] it was 93%; in series [7] it was 100%; in [8] it was 93%. The Efficacy was found to be 95% in [14], 90% in series [9] and 86% in [5]. Moreover, the “% Inhibition of Aflatoxin at 50 μM” value in [10] is listed as 100%. For the same compound, the “% Inhibition of fungal growth at 50 μM” value in [11] is reported as 100%. For the same compound, the logP in [12] amounted to 5.14.

Turning to `CC(C)CC(C)C1CCCC1NC(=O)c1c(C(F)F)nn(C)c1Cl` (single isomer, unassigned) [Example 312], the Efficacy amounted to 90% in [13]; 95% in series [1]; 100% in [2]; 99% in series [3]; 95% in series [14]; 100% in series [4]. The same compound came in with an Efficacy in [9] of 100%. Besides, the “% Inhibition of Aflatoxin at 50 μM” value in series [10] (50 µM) came to 100%. The “% Inhibition of fungal growth at 50 μM” value in [11] (50 µM) turned out to be 99%. Further, in series [12], the logP is given as 4.40 isomer A.

Consider `CC(N(C(=O)c1c(C(F)F)nn(C)c1F)C1CC1)C(C)(C)Cc1ccc(Cl)cc1Cl` (centres unmarked) [Example 181], for which the Efficacy in series [13], in [1], in series [2], in series [3], in series [6] and in series [7] was 100% throughout. The results for the Efficacy in [14] and in series [4] were 95% and 78%, respectively. In addition, the logP in series [12] was 5.14.

On to `CC(C)CC(C)C1CCCC1NC(=O)c1c(C(F)F)nn(C)c1F` (single isomer, unassigned) [Example 316], for which the Efficacy in [13] is recorded as 98%; in [1], 90%; in [2], 100%; in [3] it was 100%; in series [14], 80%; in series [4], 100%. Besides, the Efficacy in [9] came to 100%. The “% Inhibition of Aflatoxin at 50 μM” value in series [10] came to 100%. Moreover, the “% Inhibition of fungal growth at 50 μM” value in series [11] (50 µM) is 100%. In [12], this compound returned a logP of 4.19 isomer A.

Regarding `CCCCCCC1CCCCC1NC(=O)c1c(C(F)F)nn(C)c1F` (centres unmarked) [Example 326], the Efficacy is given as 78% in [6], 92% in [8] and 100% in [9]. The logP in series [12] is 5.07.

On to `CC(C)CC(C)C1CCCCC1NC(=O)c1c(C(F)F)nn(C)c1F` (single isomer, unassigned) [Example 337], for which the Efficacy is reported as 100% in series [13]; 100% in series [1]; 100% in series [2]; 74% in [3]; 78% in series [6]; 86% in series [4]. Also, the values for the Efficacy in series [9] and in series [5] were 70% and 93%, respectively. The same compound yielded a logP in [12] of 4.47 isomer A.

Take `CCCCC1CCCC1NC(=O)c1c(C(F)F)nn(C)c1Cl` (centres unmarked) [Example 307]: the Efficacy in [13] is on record as 83%; in series [1], 100%; in series [2], 100%; in series [3] it was 100%; in series [4] it was 100%; in [9] it was 80%. In addition, in series [10], the “% Inhibition of Aflatoxin at 50 μM” value worked out at 100%. The “% Inhibition of fungal growth at 50 μM” value in [11] came to 92%. The compound further displayed a logP in series [12] of 3.83.

Values taken from US8999956B2, “N-[(het)arylalkyl)] pyrazole(thio)carboxamides and their heterosubstituted analogues” (Bayer Intellectual Property GmbH, priority 2010, dated 2015).
